Assays:
[1] = The drug is tested on Bifidobacterium ruminantium strain: fecal isolate for biotransformation. The drug concentrations were measured before and after a 12-h incubation by liquid-chromatography-coupled mass spectrometry (LC–MS); conditions: 2 µM
[2] = The drug is tested on Bacteroides pectinophilus strain: ATCC43243 for biotransformation. The drug concentrations were measured before and after a 12-h incubation by liquid-chromatography-coupled mass spectrometry (LC–MS); conditions: 2 µM
[3] = The drug is tested on Bacteroides uniformis strain: ATCC8492 for biotransformation. The drug concentrations were measured before and after a 12-h incubation by liquid-chromatography-coupled mass spectrometry (LC–MS); conditions: 2 µM
[4] = The drug is tested on Anaerotruncus colihominis strain: DSM17241 for biotransformation. The drug concentrations were measured before and after a 12-h incubation by liquid-chromatography-coupled mass spectrometry (LC–MS); conditions: 2 µM
[5] = The drug is tested on Clostridium asparagiforme strain: DSM15981 for biotransformation. The drug concentrations were measured before and after a 12-h incubation by liquid-chromatography-coupled mass spectrometry (LC–MS); type: ADME; parameters: dose 2 uM, timepoint 0 vs 12 hours; conditions: enterocloster asparagiformis, 2 µM
[6] = The drug is tested on Clostridium sp. strain: fecal isolate for biotransformation. The drug concentrations were measured before and after a 12-h incubation by liquid-chromatography-coupled mass spectrometry (LC–MS); conditions: 2 µM
[7] = The drug is tested on Coprococcus comes strain: ATCC27758 for biotransformation. The drug concentrations were measured before and after a 12-h incubation by liquid-chromatography-coupled mass spectrometry (LC–MS); type: ADME; parameters: dose 2 uM, timepoint 0 vs 12 hours; conditions: 2 µM
[8] = The drug is tested on Eubacterium hallii strain: DSM3353 for biotransformation. The drug concentrations were measured before and after a 12-h incubation by liquid-chromatography-coupled mass spectrometry (LC–MS); conditions: anaerobutyricum hallii, 2 µM
[9] = The drug is tested on Eubacterium rectale strain: ATCC33656 for biotransformation. The drug concentrations were measured before and after a 12-h incubation by liquid-chromatography-coupled mass spectrometry (LC–MS); conditions: agathobacter rectalis, 2 µM
[10] = The drug is tested on Providencia rettgeri strain: DSM1131 for biotransformation. The drug concentrations were measured before and after a 12-h incubation by liquid-chromatography-coupled mass spectrometry (LC–MS); type: ADME; parameters: dose 2 uM, timepoint 0 vs 12 hours; conditions: 2 µM
[11] = bifidobacterium adolescentis, 12 h, 2 µM
Description: The drug is tested on Bifidobacterium adolescentis strain: ATCC 15703 for biotransformation. The drug concentrations were measured before and after a 12-h incubation by liquid-chromatography-coupled mass spectrometry (LC–MS)

[12] = bacteroides eggerthii, 12 h, 2 µM
Description: The drug is tested on Bacteroides eggerthii strain: DSM20697 for biotransformation. The drug concentrations were measured before and after a 12-h incubation by liquid-chromatography-coupled mass spectrometry (LC–MS)

[13] = bacteroides intestinalis, 12 h, 2 µM
Description: The drug is tested on Bacteroides intestinalis strain: DSM17393 for biotransformation. The drug concentrations were measured before and after a 12-h incubation by liquid-chromatography-coupled mass spectrometry (LC–MS)

[14] = parabacteroides distasonis, 12 h, 2 µM
Description: The drug is tested on Parabacteroides distasonis strain: ATCC8503 for biotransformation. The drug concentrations were measured before and after a 12-h incubation by liquid-chromatography-coupled mass spectrometry (LC–MS)

[15] = enterocloster bolteae, 12 h, 2 µM
Description: The drug is tested on Clostridium bolteae strain: ATCCBAA-613 for biotransformation. The drug concentrations were measured before and after a 12-h incubation by liquid-chromatography-coupled mass spectrometry (LC–MS)

[16] = roseburia intestinalis, 12 h, 2 µM
Description: The drug is tested on Roseburia intestinalis strain: L1-82 for biotransformation. The drug concentrations were measured before and after a 12-h incubation by liquid-chromatography-coupled mass spectrometry (LC–MS)

[17] = akkermansia muciniphila, 12 h, 2 µM
Description: The drug is tested on Akkermansia muciniphila strain: ATCC BAA-835 for biotransformation. The drug concentrations were measured before and after a 12-h incubation by liquid-chromatography-coupled mass spectrometry (LC–MS)

[18] = The drug is tested on Bifidobacterium longum subsp. Infantis strain: CCUG52486 for biotransformation. The drug concentrations were measured before and after a 12-h incubation by liquid-chromatography-coupled mass spectrometry (LC–MS); conditions: 2 µM
[19] = The drug is tested on Providencia stuartii strain: ATCC25827 for biotransformation. The drug concentrations were measured before and after a 12-h incubation by liquid-chromatography-coupled mass spectrometry (LC–MS); conditions: 2 µM
[20] = segatella copri, 12 h, 2 µM
Description: The drug is tested on Prevotella copri strain: DSM18205 for biotransformation. The drug concentrations were measured before and after a 12-h incubation by liquid-chromatography-coupled mass spectrometry (LC–MS)

Measured: Bacterial Biotransformation

CN1CC(=O)N2[C@H](c3ccc4c(c3)OCO4)c3[nH]c4ccccc4c3C[C@@H]2C1=O
not listed: [18] | [19] | [20]
Compound NOT metabolized: all other assays above

O=P(O)(O)O.c1ccc(CN(CC2=NCCN2)c2ccccc2)cc1 [ANTAZOLINE PHOSPHATE]
not listed: [14]
Compound NOT metabolized: all other assays above

O=C(NCc1ccccc1)OCCO [BURAMATE]
not listed: [19]
Compound NOT metabolized: all other assays above

CCCCC1=NC2(CCCC2)C(=O)N1Cc1ccc(-c2ccccc2-c2nnn[nH]2)cc1 [IRBESARTAN]
Compound NOT metabolized: [9] | [17]
not listed: [12] | [16]
Compound metabolized: all other assays above

O=C([O-])C[C@H](O)C[C@H](O)/C=C/c1c(C2CC2)nc2ccccc2c1-c1ccc(F)cc1.O=C([O-])C[C@H](O)C[C@H](O)/C=C/c1c(C2CC2)nc2ccccc2c1-c1ccc(F)cc1.[Ca+2] [PITAVASTATIN CALCIUM]
not listed: [16] | [19]
Compound NOT metabolized: all other assays above

COc1ccccc1OCC(O)CN1CCN(CC(=O)Nc2c(C)cccc2C)CC1 (stereo unspecified) [RANOLAZINE]
not listed: [17]
Compound NOT metabolized: all other assays above

CC(C)c1nc(N(C)S(C)(=O)=O)nc(-c2ccc(F)cc2)c1/C=C/[C@@H](O)C[C@@H](O)CC(=O)[O-].CC(C)c1nc(N(C)S(C)(=O)=O)nc(-c2ccc(F)cc2)c1/C=C/[C@@H](O)C[C@@H](O)CC(=O)[O-].[Ca+2] [ROSUVASTATIN CALCIUM]
not listed: [17] | [20]
Compound NOT metabolized: all other assays above

Cc1ccc(-c2nc3ccc(C)cn3c2CC(=O)N(C)C)cc1 [ZOLPIDEM]
not listed: [12] | [14]
Compound NOT metabolized: all other assays above
